Calls of active or inactive are those of the source. No cut-off for these calls is given here.
What was measured:
[1] = tested on: HT-22; assay: Neuroprotective activity against amyloid beta (1 to 42 residues)-induced cell death in mouse HT22 cells assessed as increase in cell viability at 20 uM after 24 hrs by MTT assay (reference value: 51.2%); format: functional
[2] = tested on: HT-22; assay: Cytotoxicity against mouse HT-22 cells assessed as reduction in cell viability at 40 uM after 24 hrs by MTT assay; format: cell-based; details: ht-22, 24 h
[3] = tested on: HT-22; assay: Neuroprotective activity against amyloid beta (1 to 42) transfected mouse HT-22 cells assessed as protection against amyloid-induced inflammation at 40 uM after 24 hrs by MTT assay; format: functional, cell-based
[4] = molecular target: Beta-secretase 1 (Homo sapiens) (UniProt P56817); assay: Inhibition of BACE1 (unknown origin) at 20 uM measured after 60 mins by FRET assay relative to control
Sequence of Beta-secretase 1 (Homo sapiens) (P56817 whole entry, the tested form may be a part): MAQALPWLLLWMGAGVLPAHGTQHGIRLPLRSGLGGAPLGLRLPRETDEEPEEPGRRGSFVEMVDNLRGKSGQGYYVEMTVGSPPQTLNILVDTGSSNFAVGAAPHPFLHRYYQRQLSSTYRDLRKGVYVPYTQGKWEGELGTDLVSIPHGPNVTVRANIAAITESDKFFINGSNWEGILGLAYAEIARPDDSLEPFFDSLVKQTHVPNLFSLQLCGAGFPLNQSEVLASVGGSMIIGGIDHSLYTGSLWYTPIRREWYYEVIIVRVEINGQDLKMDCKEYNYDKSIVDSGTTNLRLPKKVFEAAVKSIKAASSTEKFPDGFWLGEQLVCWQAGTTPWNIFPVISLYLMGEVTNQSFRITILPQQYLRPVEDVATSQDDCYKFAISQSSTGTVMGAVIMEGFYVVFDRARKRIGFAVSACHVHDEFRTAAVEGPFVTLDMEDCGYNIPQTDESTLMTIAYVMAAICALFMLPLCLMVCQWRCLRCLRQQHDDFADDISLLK

[5] = molecular target: Beta-secretase 1 (Homo sapiens) (UniProt P56817); assay: Inhibition of BACE1 (unknown origin) at 10 uM measured after 60 mins by FRET assay
[6] = tested on: HT-22; assay: Neuroprotective activity in mouse HT-22 cells assessed as reduction in amyloid beta (1 to 42 residues)-induced glutamate level at 40 uM after 24 hrs by fluorescence assay (reference value: 3.17); format: functional
[7] = tested on: HT-22; assay: Neuroprotective activity against glutamate-induced cell death in mouse HT22 cells assessed as increase in cell viability at 40 uM preincubated for 6 hrs followed by glutamate-challenge and measured after 16 hrs by MTT assay relative to control; format: functional
[8] = tested on: BV-2; assay: Cytotoxicity against mouse BV2 cells assessed as reduction in cell viability at 40 uM after 18 hrs by MTT assay; format: cell-based; details: bv-2, 18 h
[9] = tested on: BV-2; assay: Anti-neuroinflammatory activity in mouse BV-2 cells assessed as reduction in amyloid beta (1 to 42 residues)-induced nitric oxide at 40 uM after 18 hrs; format: functional, cell-based
[10] = tested on: HT-22; assay: Neuroprotective activity against amyloid beta (1 to 42) transfected mouse HT22-ARE cells assessed as reversal of increase in antioxidant response element-luciferase activity at 40 uM after 18 hrs by reporter gene assay; format: functional, cell-based
[11] = tested on: HT-22; assay: Neuroprotective activity against in amyloid beta (1 to 42) transfected mouse HT22 cells assessed as reduction in overexpression of the green fluorescent pEGFP-C1 gene at 40 uM after 24 hrs by reporter gene assay; format: functional, cell-based
[12] = tested on: HT-22; assay: Neuroprotective activity against amyloid beta (1 to 42 residues)-induced cell death in mouse HT22 cells assessed as increase in cell viability at 1 uM after 24 hrs by MTT assay (reference value: 51.2%); format: functional
[13] = tested on: HT-22; assay: Neuroprotective activity against amyloid beta (1 to 42 residues)-induced cell death in mouse HT22 cells assessed as increase in cell viability at 5 uM after 24 hrs by MTT assay (reference value: 51.2%); format: functional

Work on `COC(=O)CC[C@@]1(C)C(C(C)(C)O)CC[C@]2(C)[C@@H]1CC=C1[C@@H]3C[C@](C)(CO)CC[C@]3(CO)C(=O)C[C@]12C` (some centres undefined) yielded an Activity [1] of 68.9%.
For `CC1(C)CC[C@]2(O)C(=O)C[C@]3(C)C(=C[C@@H](O)[C@@H]4[C@@]5(C)[C@H](O)CC(=O)C(C)(C)[C@@H]5CC[C@]43C)[C@@H]2C1`, the Activity [2] was “Non-Toxic”, the Activity [3] was “Active” and the inhibition [4] was 51.1%. The inhibition [5] was “Active”, the “fold change (FC)” value [6] was 1.42 and the Activity [7] was 78.1%. For the same molecule, the Activity [8] was “Non-Toxic”, the Activity [9] was “Active” and the Activity [10] was “Active”. For the same molecule, the Activity [11] was “Active”.
Molecule `CC(=O)O[C@H]1CC[C@]2(C)[C@H]3C=CC4=C5CC(C)(C)CC[C@]5(C(=O)O)CC[C@@]4(C)[C@]3(C)CC[C@H]2C1(C)C` has an Activity [12] of 68.9%.
`CC1(C)CC[C@]2(O)C(=O)C[C@]3(C)C(=CC[C@@H]4[C@@]5(C)CC[C@H](O)C(C)(C)[C@@H]5CC[C@]43C)[C@@H]2C1` showed an Activity [12] of 68.9%.
`CCCCOC(=O)CC[C@]1(C)[C@H]2CC=C3[C@@H]4C[C@](C)(CO)CC[C@]4(O)C(=O)C[C@@]3(C)[C@]2(C)[C@@H](O)C[C@H]1C(C)(C)O` was tested, and the Activity [2] was “Non-Toxic” and the Activity [8] was “Non-Toxic”.
`CC1(C)CC[C@]2(C(=O)O)C(=O)C[C@]3(C)C(=CC[C@@H]4[C@@]5(C)CC[C@H](O[C@@H]6O[C@H](C(=O)O)[C@@H](O)[C@H](O[C@@H]7O[C@H](CO)[C@@H](O)[C@H](O)[C@H]7O[C@@H]7O[C@H](CO)[C@@H](O)[C@H](O)[C@H]7O)[C@H]6O[C@H]6O[C@@H](CO)[C@H](O)[C@@H](O)[C@@H]6O)C(C)(C)[C@@H]5CC[C@]43C)[C@@H]2C1` gave an Activity [1] of 61.7%.
In the case of `CC1(C)CC[C@]2(CO)[C@H](O)C[C@]3(C)C(=CC[C@@H]4[C@@]5(C)CC[C@H](O)C(C)(C)[C@@H]5CC[C@]43C)[C@@H]2C1` [PRIMULAGENIN], the Activity [12] was 60.5%.
In the case of `COC(=O)CC[C@@]1(C)C(C(C)(C)O)CC[C@]2(C)[C@@H]1CC=C1[C@@H]3C[C@](C)(CO)CC[C@]3(O)C(=O)C[C@]12C` (some centres undefined), the Activity [1] was 68.9%.
Work on `CC(C)(O)C1CC[C@]2(C)[C@H](CC=C3[C@@H]4C[C@](C)(CO)CC[C@]4(O)C(=O)C[C@]32C)[C@@]1(C)CCC(=O)O` (some centres undefined) yielded an Activity [1] of 68.9%.
`CC(C)(O)C1C[C@H](O)[C@]2(C)[C@H](CC=C3[C@@H]4C[C@](C)(CO)CC[C@]4(O)C(=O)C[C@]32C)[C@@]1(C)CCC(=O)O` (some centres undefined) was tested, and the Activity [1] was 68.9%.
For `O=c1c(O)c(-c2ccc(O)c(O)c2)oc2cc(O)cc(O)c12`, the inhibition [5] was “Active”.
`CC(=O)O[C@H]1CC[C@]2(C)[C@H]3CC=C4[C@@H]5CC(C)(C)CC[C@]5(C(=O)O)CC[C@@]4(C)[C@]3(C)CC[C@H]2C1(C)C` [ACETYL OLEANOLIC ACID] showed an Activity [12] of 56.3%.
In the case of `CC1(CO)CC[C@]2(O)C(=O)C[C@]3(C)C(=CC[C@@H]4[C@@]5(C)CCC(=O)C(C)(C)[C@@H]5CC[C@]43C)[C@@H]2C1` (some centres undefined), the Activity [2] was “Non-Toxic”, the Activity [3] was “Active” and the inhibition [4] was 60.6%. The inhibition [5] was “Active”, the “fold change (FC)” value [6] was 1.81 and the Activity [7] was 81.2%. The Activity [8] was “Non-Toxic”, the Activity [9] was “Active” and the Activity [10] was “Active”. The Activity [11] was “Active”.
Molecule `CC(=O)O[C@H]1CC[C@@]2(C)C(CC[C@]3(C)[C@@H]2C(=O)C=C2[C@@H]4CC(C)(C)CC[C@]4(C)CC[C@]23C)C1(C)C` (some centres undefined) has an Activity [13] of 68.9%.
With `CC1(C)CC[C@]2(CO)C(=O)C[C@]3(C)C(=CC[C@@H]4[C@@]5(C)CC[C@H](O[C@@H]6O[C@H](C(=O)O)[C@@H](O)[C@H](O)[C@H]6O)C(C)(C)[C@@H]5CC[C@]43C)[C@@H]2C1` the Activity [1] was 55.5%.
In the case of `CC1(C)CCC2C(=O)C[C@]3(C)C(=C2C1)C=C[C@@H]1[C@@]2(C)CC[C@H](O)C(C)(C)C2CC[C@]13C` (some centres undefined), the Activity [13] was 68.9%.
`CO[C@@H]1C=C2[C@@H]3CC(C)(C)CC[C@]3(O)C(=O)C[C@@]2(C)[C@]2(C)CC[C@H]3C(C)(C)C(=O)C=C[C@]3(C)[C@@H]12` was tested, and the Activity [2] was “Non-Toxic”, the Activity [3] was “Active” and the inhibition [4] was 61.3%. The inhibition [5] was “Active”, the “fold change (FC)” value [6] was 1.8 and the Activity [7] was 73.8%. For the same molecule, the Activity [8] was “Non-Toxic”, the Activity [9] was “Active” and the Activity [10] was “Active”. The Activity [11] was “Active”.
With `CC1(C)CC[C@]2(O)C(=O)C[C@]3(C)C(=CC[C@@H]4[C@@]5(C)CC[C@H](O[C@@H]6O[C@H](C(=O)O)[C@@H](O)[C@H](O[C@@H]7O[C@H](CO)[C@@H](O)[C@H](O)[C@H]7O[C@@H]7O[C@H](CO)[C@@H](O)[C@H](O)[C@H]7O)[C@H]6O)C(C)(C)[C@@H]5CC[C@]43C)[C@@H]2C1` the Activity [1] was 68.9%.
Work on `CC1(C)CC[C@]2(O)C(=O)C[C@]3(C)C(=CC[C@@H]4[C@@]5(C)CC[C@H](O[C@@H]6O[C@H](C(=O)O)[C@@H](O)[C@H](O)[C@H]6O)C(C)(C)[C@@H]5CC[C@]43C)[C@@H]2C1` yielded an Activity [13] of 68.9%.
With `C=C(C)C1CC[C@]2(C)[C@H](CC=C3[C@@H]4C[C@](C)(CO)CC[C@]4(O)C(=O)C[C@]32C)[C@@]1(C)CCC(=O)O` (some centres undefined) the Activity [1] was 68.9%.
Work on `CC1(C)CC[C@]2(C(=O)O)C(=O)C[C@]3(C)C(=CC[C@@H]4[C@@]5(C)CC[C@H](O[C@@H]6O[C@H](C(=O)O)[C@@H](O)[C@H](O)[C@H]6O)C(C)(C)[C@@H]5CC[C@]43C)[C@@H]2C1` yielded an Activity [1] of 72%.
`CC1(C)CC[C@]2(O)C(=O)C[C@]3(C)C(=CC[C@@H]4[C@@]5(C)CCC(=O)C(C)(C)[C@@H]5CC[C@]43C)[C@@H]2C1` gave an Activity [1] of 68.9%.
`COC(=O)CC[C@@]1(C)C(C(C)(C)O)C[C@H](O)[C@]2(C)[C@@H]1CC=C1[C@@H]3CC(C)(C)CC[C@]3(O)C(=O)C[C@]12C` (some centres undefined) gave an Activity [1] of 68.9%.
`CC1(C)CC[C@]2(C(=O)O)CC[C@]3(C)C(=CC[C@@H]4[C@@]5(C)CC[C@H](O)C(C)(C)C5CC[C@]43C)[C@@H]2C1` (some centres undefined) gave an Activity [13] of 58.6%.
`CC1(C)CC[C@]2(O)C(=O)C[C@]3(C)C(=CC[C@@H]4[C@@]5(C)CC[C@H](O[C@@H]6O[C@H](C(=O)O)[C@@H](O)[C@H](O[C@@H]7O[C@H](CO)[C@@H](O)[C@H](O)[C@H]7O[C@@H]7O[C@H](CO)[C@@H](O)[C@H](O)[C@H]7O)[C@H]6O[C@H]6O[C@@H](CO)[C@H](O)[C@@H](O)[C@@H]6O)C(C)(C)[C@@H]5CC[C@]43C)[C@@H]2C1` showed an Activity [13] of 68.9%.
With `COC(=O)CC[C@@]1(C)C(C(C)(C)O)C[C@H](O)[C@]2(C)[C@@H]1CC=C1[C@@H]3C[C@](C)(CO)CC[C@]3(O)C(=O)C[C@]12C` (some centres undefined) the Activity [1] was 68.9%.
For `CO[C@@H]1C=C2[C@@H]3CC(C)(C)CC[C@]3(O)C(=O)C[C@@]2(C)[C@]2(C)CC[C@H]3C(C)(C)C(=O)C[C@@H](O)[C@]3(C)[C@@H]12`, the Activity [2] was “Non-Toxic”, the Activity [3] was “Active” and the inhibition [4] was 51.9%. The inhibition [5] was “Active”, the “fold change (FC)” value [6] was 1.61 and the Activity [7] was 77%. The Activity [8] was “Non-Toxic”, the Activity [9] was “Active” and the Activity [10] was “Active”. The Activity [11] was “Active”.
In the case of `CC1(C)CC[C@]2(O)[C@H](O)C[C@]3(C)C(=CC[C@@H]4[C@@]5(C)CC[C@H](O)C(C)(C)[C@@H]5CC[C@]43C)[C@@H]2C1`, the Activity [12] was 61.9%.
For `CCOC(=O)[C@H]1O[C@@H](O[C@H]2CC[C@]3(C)[C@H]4CC=C5[C@@H]6CC(C)(C)CC[C@]6(O)C(=O)C[C@@]5(C)[C@]4(C)CC[C@H]3C2(C)C)[C@H](O)[C@@H](O)[C@@H]1O`, the Activity [12] was 68.9%.
`C=C(C)[C@@H]1C[C@H](O)[C@]2(C)[C@H](CC=C3[C@@H]4C[C@](C)(CO)CC[C@]4(O)C(=O)C[C@]32C)[C@@]1(C)CCC(=O)OC` was tested, and the Activity [2] was “Non-Toxic” and the Activity [8] was “Non-Toxic”.
Molecule `CC1(C)CC[C@]2(O)C(=O)C[C@]3(C)C(=CC[C@@H]4[C@@]5(C)CC[C@H](O[C@@H]6O[C@H](CO)[C@@H](O)[C@H](O[C@@H]7O[C@H](CO)[C@@H](O)[C@H](O)[C@H]7O[C@@H]7O[C@H](CO)[C@@H](O)[C@H](O)[C@H]7O)[C@H]6O[C@H]6O[C@@H](CO)[C@H](O)[C@@H](O)[C@@H]6O)C(C)(C)[C@@H]5CC[C@]43C)[C@@H]2C1` has an Activity [13] of 68.9%.

Reference: ChEMBL document CHEMBL4665685, “Neuroprotective Effects of Triterpenoids from Camellia japonica against Amyloid β-Induced Neuronal Damage” (J Nat Prod, 2020)
